Measured values from PubChem BioAssay AID256 (DTP/NCI, 2004).
Values joined by “and” are separate entries in the source; they are usually repeats but may differ in a detail not shown here. Equal values may be shown once. Toxic doses and inconclusive results are not listed.

Tested on: CD2F1 mice, L1210 leukemia ip, survival T/C
Assay: NCI In Vivo Anticancer Drug Screen. Data for tumor model L1210 Leukemia (intraperitoneal) in CD2F1 (CDF1) mice
Conditions: higher = longer survival
Method in brief: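 Read-out first: treated-group measurement over vehicle-control measurement, expressed as a ratio. Animals bore a transplanted tumor line and were dosed with compound or vehicle.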

[1] = endpoint: mean survival time, dose: 100.0 mg/kg/injection, schedule: Q01DX009 (ip), vehicle: saline with Tween-80
[2] = endpoint: mean survival time, dose: 100.0 mg/kg/injection, schedule: Q04DX003 (ip), vehicle: saline with Tween-80
[3] = endpoint: mean survival time, dose: 200.0 mg/kg/injection, schedule: Q01DX009 (ip), vehicle: saline with Tween-80
[4] = endpoint: mean survival time, dose: 200.0 mg/kg/injection, schedule: Q04DX003 (ip), vehicle: saline with Tween-80
[5] = endpoint: mean survival time, dose: 400.0 mg/kg/injection, schedule: Q01DX009 (ip), vehicle: saline with Tween-80
[6] = endpoint: mean survival time, dose: 400.0 mg/kg/injection, schedule: Q04DX003 (ip), vehicle: saline with Tween-80
[7] = endpoint: mean survival time, dose: 50.0 mg/kg/injection, schedule: Q01DX009 (ip), vehicle: saline with Tween-80

Nc1ncc(N)c(N)n1
T/C (endpoint: mean survival time, dose: 250.0 mg/kg/injection, schedule: Q04DX003 (ip), vehicle: saline sonified): 102 % of control
T/C (endpoint: mean survival time, dose: 500.0 mg/kg/injection, schedule: Q04DX003 (ip), vehicle: saline sonified): 98 % of control
T/C (endpoint: mean survival time, dose: 1000.0 mg/kg/injection, schedule: Q04DX003 (ip), vehicle: saline sonified): 103 % of control

O=C(O)C(=O)O.[NH-]C1CCCCC1C1CCCCC1[NH-].[Pt+2] (stereo not given)
T/C (endpoint: mean survival time, dose: 3.12 mg/kg/injection, schedule: Q04DX003 (ip), vehicle: distilled water + Tween-80): 112 % of control
T/C (endpoint: mean survival time, dose: 6.25 mg/kg/injection, schedule: Q04DX003 (ip), vehicle: distilled water + Tween-80): 119 % of control
T/C (endpoint: mean survival time, dose: 25.0 mg/kg/injection, schedule: Q04DX003 (ip), vehicle: distilled water + Tween-80): 160 % of control
T/C (endpoint: mean survival time, dose: 50.0 mg/kg/injection, schedule: Q04DX003 (ip), vehicle: distilled water + Tween-80): 238 % of control

CCOC(=O)/C=C1\NC(=O)CS1
T/C [1]: 97 % of control
T/C [2]: 100 % of control
T/C [3]: 95 % of control
T/C [4]: 100 % of control
T/C [5]: 103 % of control
T/C [6]: 100 % of control

C[N+](C)(C)CCS(=O)(=O)c1ccc(Cl)cc1
T/C (endpoint: mean survival time, dose: 25.0 mg/kg/injection, schedule: Q04DX002 (ip), vehicle: saline): 90 % of control
T/C (endpoint: mean survival time, dose: 50.0 mg/kg/injection, schedule: Q04DX002 (ip), vehicle: saline): 94 % of control
T/C (endpoint: mean survival time, dose: 100.0 mg/kg/injection, schedule: Q04DX002 (ip), vehicle: saline): 86 % of control

O=C1OC(=O)c2ccc([N+](=O)[O-])c3cccc1c23
T/C (endpoint: mean survival time, dose: 100.0 mg/kg/injection, schedule: Q04DX003 (ip), vehicle: Klucel (hydroxypropylcellulose) (HPC)): 98 % of control
T/C (endpoint: mean survival time, dose: 200.0 mg/kg/injection, schedule: Q04DX003 (ip), vehicle: Klucel (hydroxypropylcellulose) (HPC)): 106 % of control
T/C (endpoint: mean survival time, dose: 400.0 mg/kg/injection, schedule: Q04DX003 (ip), vehicle: Klucel (hydroxypropylcellulose) (HPC)): 96 % of control

COc1ccc(-c2cc(C(=O)Nc3cc(C(F)(F)F)cc(C(F)(F)F)c3)c3ccccc3n2)cc1
T/C (endpoint: median survival time, dose: 25.0 mg/kg/injection, schedule: Q01DX005 (ip), vehicle: DMSO): 100 % of control
T/C (endpoint: median survival time, dose: 50.0 mg/kg/injection, schedule: Q01DX005 (ip), vehicle: DMSO): 98 % of control
T/C (endpoint: median survival time, dose: 100.0 mg/kg/injection, schedule: Q01DX005 (ip), vehicle: DMSO): 98 % of control
T/C (endpoint: median survival time, dose: 200.0 mg/kg/injection, schedule: Q01DX005 (ip), vehicle: DMSO): 109 % of control
T/C (endpoint: median survival time, dose: 400.0 mg/kg/injection, schedule: Q01DX005 (ip), vehicle: DMSO): 106 % of control

COc1ccc(NCCOc2ccccc2Br)cc1
T/C (endpoint: mean survival time, dose: 100.0 mg/kg/injection, schedule: Q04DX003 (ip), vehicle: other): 97 % of control
T/C (endpoint: mean survival time, dose: 200.0 mg/kg/injection, schedule: Q04DX003 (ip), vehicle: other): 101 % of control
T/C (endpoint: mean survival time, dose: 400.0 mg/kg/injection, schedule: Q04DX003 (ip), vehicle: other): 95 % of control

CCOC(=O)c1c[nH]n(C2OC(CO)C(O)C2O)c1=O (stereo not given)
T/C (endpoint: median survival time, dose: 45.5 mg/kg/injection, schedule: Q01DX005 (ip), vehicle: saline): 96 % of control
T/C (endpoint: median survival time, dose: 90.9 mg/kg/injection, schedule: Q01DX005 (ip), vehicle: saline): 96 % of control
T/C (endpoint: median survival time, dose: 181.9 mg/kg/injection, schedule: Q01DX005 (ip), vehicle: saline): 98 % of control

C[C@]12CCCC[C@@H]1CC[C@@H]1[C@@H]2[C@@H](O)C[C@]2(C)[C@@H](O)CC[C@@H]12
T/C [2]: 93 % of control
T/C [4]: 101 % of control

O=C(OCCNc1ccc([N+](=O)[O-])cc1[N+](=O)[O-])c1ccccc1
T/C (endpoint: mean survival time, dose: 100.0 mg/kg/injection, schedule: Q04DX002 (ip), vehicle: other): 101 % of control
T/C (endpoint: mean survival time, dose: 200.0 mg/kg/injection, schedule: Q04DX002 (ip), vehicle: other): 108 % of control
T/C (endpoint: mean survival time, dose: 400.0 mg/kg/injection, schedule: Q04DX002 (ip), vehicle: other): 96 % of control

CC(=O)OC(CNCC(=O)O)C(Cl)(Cl)Cl (stereo not given)
T/C [2]: 102 % of control
T/C [4]: 98 % of control
T/C [6]: 98 % of control

O=S(=O)(c1ccccc1)N1CN2CCN(C2)C1
T/C (endpoint: mean survival time, dose: 12.5 mg/kg/injection, schedule: Q01DX009 (ip), vehicle: saline with Tween-80): 95 % of control and 110 % of control
T/C (endpoint: mean survival time, dose: 25.0 mg/kg/injection, schedule: Q01DX009 (ip), vehicle: saline with Tween-80): 97 % of control and 100 % of control
T/C [7]: 102 % of control and 106 % of control
T/C [1]: 101 % of control and 111 % of control
T/C [3]: 117 % of control and 107 % of control
T/C [5]: 117 % of control and 105 % of control

CNc1ccn(C2OC(CO)C(O)C2SC(C)(C)C)c(=O)n1 (stereo not given)
T/C (endpoint: median survival time, dose: 12.5 mg/kg/injection, schedule: Q01DX005 (ip), vehicle: saline): 105 % of control
T/C (endpoint: median survival time, dose: 25.0 mg/kg/injection, schedule: Q01DX005 (ip), vehicle: saline): 105 % of control
T/C (endpoint: median survival time, dose: 50.0 mg/kg/injection, schedule: Q01DX005 (ip), vehicle: saline): 100 % of control
T/C (endpoint: median survival time, dose: 100.0 mg/kg/injection, schedule: Q01DX005 (ip), vehicle: saline): 102 % of control
T/C (endpoint: median survival time, dose: 200.0 mg/kg/injection, schedule: Q01DX005 (ip), vehicle: saline): 100 % of control

CN(C)c1ccc(/C=N/NC(=O)CNC(=O)Nc2cccc(C(F)(F)F)c2)c(Cl)c1
T/C [7]: 88 % of control
T/C [1]: 88 % of control
T/C [3]: 88 % of control

Cc1ccccc1C1(c2ccccc2C)OC(=O)c2ccccc21
T/C (endpoint: mean survival time, dose: 100.0 mg/kg/injection, schedule: Q04DX003 (ip), vehicle: acetone): 104 % of control
T/C (endpoint: mean survival time, dose: 200.0 mg/kg/injection, schedule: Q04DX003 (ip), vehicle: acetone): 88 % of control
T/C (endpoint: mean survival time, dose: 400.0 mg/kg/injection, schedule: Q04DX003 (ip), vehicle: acetone): 96 % of control

CN1CC(CO)C(O)C2c3cccc4[nH]cc(c34)CC21 (stereo not given)
T/C (endpoint: median survival time, dose: 25.0 mg/kg/injection, schedule: Q04DX003 (ip), vehicle: saline with Tween-80): 100 % of control
T/C (endpoint: median survival time, dose: 50.0 mg/kg/injection, schedule: Q04DX003 (ip), vehicle: saline with Tween-80): 100 % of control
T/C (endpoint: median survival time, dose: 100.0 mg/kg/injection, schedule: Q04DX003 (ip), vehicle: saline with Tween-80): 100 % of control
T/C (endpoint: median survival time, dose: 200.0 mg/kg/injection, schedule: Q04DX003 (ip), vehicle: saline with Tween-80): 100 % of control

COc1cccc(C2=CCCCCC2)c1OC
T/C [2]: 98 % of control
T/C [4]: 101 % of control
T/C [6]: 102 % of control

Oc1ccc(C(O)(c2ccccc2)c2ccc(O)c3ccccc23)c2ccccc12
T/C [2]: 102 % of control
T/C [4]: 96 % of control
T/C [6]: 103 % of control

C[CH2][Sn]([CH2]C)([O]S(=O)(=O)CC12CCC(CC1=O)C2(C)C)[O]S(=O)(=O)CC12CCC(CC1=O)C2(C)C
T/C (endpoint: mean survival time, dose: 1.56 mg/kg/injection, schedule: Q01DX009 (ip), vehicle: saline): 94 % of control
T/C (endpoint: mean survival time, dose: 3.12 mg/kg/injection, schedule: Q01DX009 (ip), vehicle: saline): 94 % of control
T/C (endpoint: mean survival time, dose: 6.25 mg/kg/injection, schedule: Q01DX009 (ip), vehicle: saline): 103 % of control
T/C (endpoint: mean survival time, dose: 12.5 mg/kg/injection, schedule: Q01DX009 (ip), vehicle: saline): 113 % of control
T/C (endpoint: mean survival time, dose: 25.0 mg/kg/injection, schedule: Q01DX009 (ip), vehicle: saline): 111 % of control

N#CCCN1c2ccccc2Sc2ccccc21
T/C (endpoint: mean survival time, dose: 75.0 mg/kg/injection, schedule: Q04DX003 (ip), vehicle: saline): 102 % of control
T/C (endpoint: mean survival time, dose: 150.0 mg/kg/injection, schedule: Q04DX003 (ip), vehicle: saline): 112 % of control

COc1c2occc2c(OC)c2c(=O)cc(/C=C/c3ccccn3)oc12
T/C (endpoint: mean survival time, dose: 100.0 mg/kg/injection, schedule: Q01DX001 (ip), vehicle: saline): 98 % of control
T/C (endpoint: mean survival time, dose: 200.0 mg/kg/injection, schedule: Q01DX001 (ip), vehicle: saline): 101 % of control
T/C (endpoint: mean survival time, dose: 400.0 mg/kg/injection, schedule: Q01DX001 (ip), vehicle: saline): 98 % of control

Cc1ccc(S(=O)(=O)N/N=C/c2ccncc2)cc1
T/C (endpoint: mean survival time, dose: 25.0 mg/kg/injection, schedule: Q01DX009 (ip), vehicle: Klucel (hydroxypropylcellulose) (HPC)): 104 % of control
T/C (endpoint: mean survival time, dose: 50.0 mg/kg/injection, schedule: Q01DX009 (ip), vehicle: Klucel (hydroxypropylcellulose) (HPC)): 105 % of control
T/C (endpoint: mean survival time, dose: 100.0 mg/kg/injection, schedule: Q01DX009 (ip), vehicle: Klucel (hydroxypropylcellulose) (HPC)): 98 % of control
T/C (endpoint: mean survival time, dose: 200.0 mg/kg/injection, schedule: Q01DX009 (ip), vehicle: Klucel (hydroxypropylcellulose) (HPC)): 98 % of control

CC(C)COP(=O)(OCC(C)C)OCC(C)C
T/C [2]: 100 % of control
T/C [4]: 92 % of control

CC(=O)C1CCC2C3=CC=C4CC(OC(=O)c5ccccc5)CCC4(C)C3CCC12C (stereo not given)
T/C [2]: 101 % of control
T/C [4]: 98 % of control
T/C [6]: 102 % of control

Cc1ccc(Nc2nc(N)nc3nc(N)c(C(N)=O)nc23)cc1C
T/C (endpoint: mean survival time, dose: 12.5 mg/kg/injection, schedule: Q04DX002 (ip), vehicle: Klucel (hydroxypropylcellulose) (HPC)): 91 % of control
T/C (endpoint: mean survival time, dose: 25.0 mg/kg/injection, schedule: Q04DX002 (ip), vehicle: Klucel (hydroxypropylcellulose) (HPC)): 86 % of control
T/C (endpoint: mean survival time, dose: 50.0 mg/kg/injection, schedule: Q04DX002 (ip), vehicle: Klucel (hydroxypropylcellulose) (HPC)): 91 % of control

NC(=S)CNC(=O)c1ccccc1
T/C [2]: 100 % of control and 101 % of control
T/C [4]: 101 % of control and 106 % of control
T/C [6]: 99 % of control and 111 % of control
